Measurements reported in ChEMBL document CHEMBL1201862, “PubChem BioAssay data set” (2004).
Calls of active or inactive are those of the source.

Legend:
[1] = target: T1, Low molecular weight phosphotyrosine protein phosphatase (Homo sapiens, UniProt P24666); test: LMPTP phosphatase inhibitors, colorimetric pNPP readout, dose response, orthogonal assay, biochemical, absorbance, pNPP substrate, LMPTP-A isoform, set 2 (AID 743308); format: functional
T1 sequence (P24666 whole entry): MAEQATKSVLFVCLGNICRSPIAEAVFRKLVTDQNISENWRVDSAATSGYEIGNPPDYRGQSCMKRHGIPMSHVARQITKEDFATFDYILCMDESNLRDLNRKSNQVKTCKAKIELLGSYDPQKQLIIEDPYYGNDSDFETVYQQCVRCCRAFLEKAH

[2] = target: T1, Low molecular weight phosphotyrosine protein phosphatase; test: LMPTP phosphatase inhibitors, dose response, biochemical, OMFP substrate, fluorescence intensity, set 2 (AID 743307); format: functional
[3] = cytotoxicity in HEK-293T cells, dose response, cytotoxicity control for TCR NF-kB inhibitor project, luminescence, T-cell screen hits (AID 489026); format: functional, cell-based;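 also: cells exposed to compound about 14 hours before the viability readout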
Cytochrome P450 3A4 = Cytochrome P450 3A4 (Homo sapiens, UniProt P08684);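 also: CYP3A4 tested as one member of a cytochrome P450 panel screen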
[4] = growth suppression of beta-catenin-knockout colon cells, dose response, cell-based, HCT116, human colon tumor (AID 1045); format: functional;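 also: HCT116 colon tumor cells with beta catenin knocked out; cells exposed to compound for 60 hours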
Cytochrome P450 2C9 = Cytochrome P450 2C9 (Homo sapiens, UniProt P11712)
[5] = NIH-3T3 fibroblast cytotoxicity, dose response, cytotoxicity control, cell-based, fluorescence, Alamar Blue, secondary assay (AID 2327); format: functional;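 also: NIH-3T3 mouse fibroblasts cultured with fluconazole at 8 µg/mL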
[6] = growth suppression of PTEN-null colon cells, dose response, cell-based, HCT116 PTEN knockout (AID 1047); format: functional;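 also: HCT116 colon tumor cells with PTEN knocked out; cells exposed to compound for 60 hours before readout; potency for loss of cell viability measured by luminescence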
[7] = target: T2, Microphthalmia-associated transcription factor (Homo sapiens, UniProt O75030); test: TRPM1 promoter luciferase signal decrease, dose response, MITF inhibitor project, cell-based, SK-MEL-5, cherry-picked, set 3 (AID 493073); format: functional
T2 sequence (O75030 whole entry): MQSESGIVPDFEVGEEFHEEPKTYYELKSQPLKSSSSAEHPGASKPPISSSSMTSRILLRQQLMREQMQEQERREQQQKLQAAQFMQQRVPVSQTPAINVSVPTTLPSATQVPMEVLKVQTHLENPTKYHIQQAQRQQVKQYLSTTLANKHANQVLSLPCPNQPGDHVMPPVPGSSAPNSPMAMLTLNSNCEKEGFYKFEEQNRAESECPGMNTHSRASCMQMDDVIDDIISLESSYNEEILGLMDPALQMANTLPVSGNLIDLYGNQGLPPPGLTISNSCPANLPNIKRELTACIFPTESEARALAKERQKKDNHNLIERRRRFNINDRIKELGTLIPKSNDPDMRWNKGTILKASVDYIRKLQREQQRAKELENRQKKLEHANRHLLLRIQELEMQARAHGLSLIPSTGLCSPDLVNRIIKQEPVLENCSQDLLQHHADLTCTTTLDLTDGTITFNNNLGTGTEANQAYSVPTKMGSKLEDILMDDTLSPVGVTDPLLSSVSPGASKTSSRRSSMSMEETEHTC

[8] = inhibitors of PGC1a acetylation in cells, dose response, cell-based, cherry-picked samples (AID 720514); format: functional;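 also: potency may reflect raised or lowered acetylation signal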
[9] = C. albicans growth with fluconazole, confirmation, fluorescence, retest (AID 2467); format: functional, cell-based
[10] = HEK293T cell cytotoxicity, dose response, cytotoxicity control, CellTiter-Glo luminescence, dry powder, set 2 (AID 720595); format: functional, cell-based; conditions: HEK293
[11] = Luminescence-based counterscreen assay for KLF5 inhibitors: dose response cell-based high throughput screening assay to identify cytotoxic compounds using the IEC-6 intestinal epithelial cell line. [Related pubchem assays: 1700 (Primary screen.), 1834 (Confirmation screen.), 1858 (Summary AID.), 1905 (Counterscreen.)]; format: functional
Nonstructural protein 1 = Nonstructural protein 1 (Influenza A virus, UniProt Q194T2); format: functional, Influenza A virus (A/California/07/2009(H1N1))
[12] = HeLa cell cytotoxicity, dose response, cytotoxicity control, CellTiter-Glo luminescence, dry powder, set 2 (AID 720593); format: functional, cell-based
[13] = Vero cell cytotoxicity, dose response, cytotoxicity control for Vif-APOBEC3G degradation inhibitor project, Vero cells (AID 1117358); format: functional; conditions: Human immunodeficiency virus 1, Vero
Protein Tat = Protein Tat (Human immunodeficiency virus type 1 group M subtype B (isolate HXB2)(HIV-1), UniProt P04608); format: functional;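 also: tat binding to TAR RNA read out by fluorescence polarization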
[14] = target: T3, Carboxy-terminal domain RNA polymerase II polypeptide A small phosphatase 1 (Homo sapiens, UniProt Q9GZU7); test: inhibitors of CTDSP1, concentration-response testing, biochemical assay, absorbance-based, actives from ultra-high-throughput screening (AID 540297); format: functional
T3 sequence (Q9GZU7 whole entry): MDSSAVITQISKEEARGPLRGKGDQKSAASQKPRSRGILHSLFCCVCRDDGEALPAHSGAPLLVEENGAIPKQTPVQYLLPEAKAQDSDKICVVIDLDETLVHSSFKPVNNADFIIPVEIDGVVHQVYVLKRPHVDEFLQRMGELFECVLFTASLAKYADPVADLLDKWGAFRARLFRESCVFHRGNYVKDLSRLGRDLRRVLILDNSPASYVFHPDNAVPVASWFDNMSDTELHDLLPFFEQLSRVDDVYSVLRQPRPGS

[15] = THP-1 cell cytotoxicity, dose response, cytotoxicity control for Vif-APOBEC3G degradation inhibitor project, THP-1 cells (AID 1117359); format: functional; conditions: Human immunodeficiency virus 1, THP-1
Transthyretin = Transthyretin (Homo sapiens, UniProt P02766); test: Luminescence-based cell-based high throughput dose response assay to identify activators of Transthyretin (TTR) transcription.; format: functional
[16] = Late stage counterscreen for inhibitors of Trypanosoma brucei methionyl tRNA synthetase (MetRS): Luminescence-based cell-based high throughput dose response assay to identify compounds that are cytotoxic to Jurkat human T lymphocyte cells.; format: functional
[17] = target: T4, Methionyl-tRNA synthetase, putative (Trypanosoma brucei brucei, UniProt Q38C91); format: functional, Trypanosoma brucei brucei strain 927/4 GUTat10.1
T4 sequence (Q38C91 whole entry): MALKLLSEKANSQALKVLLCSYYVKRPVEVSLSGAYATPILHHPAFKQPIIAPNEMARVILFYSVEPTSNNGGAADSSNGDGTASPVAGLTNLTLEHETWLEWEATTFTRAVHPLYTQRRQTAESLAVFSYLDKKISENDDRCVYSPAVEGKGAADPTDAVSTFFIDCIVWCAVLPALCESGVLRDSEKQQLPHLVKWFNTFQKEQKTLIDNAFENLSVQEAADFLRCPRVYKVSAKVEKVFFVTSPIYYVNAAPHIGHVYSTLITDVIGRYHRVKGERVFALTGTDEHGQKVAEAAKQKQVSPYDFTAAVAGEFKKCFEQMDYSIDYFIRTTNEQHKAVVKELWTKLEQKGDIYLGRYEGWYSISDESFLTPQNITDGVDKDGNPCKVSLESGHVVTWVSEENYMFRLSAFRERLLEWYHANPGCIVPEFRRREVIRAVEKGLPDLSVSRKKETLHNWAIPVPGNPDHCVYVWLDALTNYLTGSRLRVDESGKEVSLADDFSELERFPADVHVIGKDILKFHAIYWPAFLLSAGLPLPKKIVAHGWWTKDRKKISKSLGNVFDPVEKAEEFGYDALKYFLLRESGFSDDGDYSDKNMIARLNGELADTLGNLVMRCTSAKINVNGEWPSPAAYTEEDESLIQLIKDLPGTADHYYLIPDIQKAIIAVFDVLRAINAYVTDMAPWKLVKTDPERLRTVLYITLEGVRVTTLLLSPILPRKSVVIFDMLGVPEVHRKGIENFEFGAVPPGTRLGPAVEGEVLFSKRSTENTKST

[18] = target: T4, Methionyl-tRNA synthetase, putative; format: functional, Trypanosoma brucei brucei strain 927/4 GUTat10.1; remark: listed apart in the source
[19] = Counterscreen for inhibitors of Trypanosoma brucei methionyl tRNA synthetase (MetRS): Luminescence-based cell-based high throughput dose response assay to identify compounds that are cytotoxic to Jurkat human T lymphocyte cells.; format: functional
[20] = T. brucei MetRS inhibitors, orthogonal readout, late-stage follow-up, orthogonal assay for T. brucei MetRS inhibitor project, biochemical, fluorescence polarization, dose response (AID 686969)
Fibrinogen beta chain [21] = target: T5, Fibrinogen beta chain (Homo sapiens, UniProt P02675); test: Fluorescence polarization-based biochemical high throughput dose response assay to identify inhibitors that disrupt the binding of a cyclic peptide (Tn6) to the fibrin proteolytic product D-Dimer and fragment E complex [DD(E )].
Fibrinogen beta chain [22] = target: T5, Fibrinogen beta chain; test: Fluorescence polarization-based biochemical high throughput dose response assay to identify inhibitors that disrupt the binding of a cyclic peptide (Tn7) to the fibrin proteolytic product D-Dimer and fragment E complex [DD(E )].
[23] = LOX IMVI melanoma cell viability loss, dose response, HRAS target identification, CellTiter-Glo ATP luminescence, 8/24/48 h, dry powder (AID 720602); format: functional, cell-based
[24] = HT-29 colorectal cell cytotoxicity over time, dose response, HRas target identification project, CellTiter-Glo, multiple timepoints, dry powder (AID 720598); format: functional, cell-based
[25] = SR lymphoma cell viability over time, late-stage follow-up, mechanism study for HRAS target identification, CellTiter-Glo ATP luminescence, 8-48 h, dry powder (AID 720608); format: functional, cell-based
[26] = CCRF-CEM leukemia cell viability loss, dose response, HRAS target identification, CellTiter-Glo ATP luminescence, 8/24/48 h, dry powder (AID 720607); format: functional, cell-based
[27] = SNB-75 astrocytoma cell viability loss, late-stage follow-up, mechanism study for HRAS target identification, CellTiter-Glo ATP luminescence, several timepoints, dry powder (AID 720624); format: functional, cell-based
[28] = HeLa cell cytotoxicity, dose response, cytotoxicity control, 24 h, plate reader, powder samples, set 3 (AID 651864); format: functional, cell-based
[29] = cytotoxicity in HepG2 cells, dose response, cytotoxicity control, cell-based, plate reader, dry powder (AID 651947); format: functional
[30] = P. falciparum Dd2 growth inhibitors, dose response, SYBR Green, dry powder samples (AID 1159566); format: functional, cell-based;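 also: potency for growth inhibition with lower SYBR green DNA signal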
[31] = HepG2 cell cytotoxicity, dose response, cytotoxicity control, plate reader, dry powder samples (AID 1159569); format: functional, cell-based;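 also: inhibitor potency with signal falling toward the positive control level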
[32] = P. falciparum Dd2 growth inhibitors, dose response, SYBR Green, cherry-picked samples (AID 1159567); format: functional, cell-based
[33] = HepG2 cell cytotoxicity, dose response, cytotoxicity control, cherry-picked samples (AID 1159577); format: functional, cell-based
[34] = P. falciparum ATP4 D1247Y mutant growth inhibitors, dose response, NITD609-resistant line, SYBR Green, dry powder (AID 1159571); format: functional, cell-based;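 also: parasites synchronized at ring stage by sorbitol before testing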
[35] = P. falciparum 3D7-ScDHODH growth inhibitors, dose response, SYBR Green, dry powder samples (AID 1159570); format: functional, cell-based;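 also: parasite growth measured after 72 hours of compound exposure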
[36] = Mtb BioA inhibitors by displacement, dose response, biochemical, coupled fluorescence displacement, 20-point, dry powder (AID 743357); format: functional
[37] = A375 melanoma cell viability loss, dose response, counter-screen for MITF inhibitor project, CellTiter-Glo luminescence, dry powder, set 4 (AID 624364); format: functional, cell-based; conditions: A-375;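 also: A375 melanoma cells are MITF independent so this is a counter screen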
[38] = A375 melanoma cell cytotoxicity, dose response, counter-screen for MITF inhibitor project, CellTiter-Glo luminescence, dry powder, set 2 (AID 624489); format: functional, cell-based; conditions: A-375;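 also: actives are compounds lowering A375 viability meaning general cytotoxicity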

T5 sequence (P02675 whole entry, the tested form may be a part): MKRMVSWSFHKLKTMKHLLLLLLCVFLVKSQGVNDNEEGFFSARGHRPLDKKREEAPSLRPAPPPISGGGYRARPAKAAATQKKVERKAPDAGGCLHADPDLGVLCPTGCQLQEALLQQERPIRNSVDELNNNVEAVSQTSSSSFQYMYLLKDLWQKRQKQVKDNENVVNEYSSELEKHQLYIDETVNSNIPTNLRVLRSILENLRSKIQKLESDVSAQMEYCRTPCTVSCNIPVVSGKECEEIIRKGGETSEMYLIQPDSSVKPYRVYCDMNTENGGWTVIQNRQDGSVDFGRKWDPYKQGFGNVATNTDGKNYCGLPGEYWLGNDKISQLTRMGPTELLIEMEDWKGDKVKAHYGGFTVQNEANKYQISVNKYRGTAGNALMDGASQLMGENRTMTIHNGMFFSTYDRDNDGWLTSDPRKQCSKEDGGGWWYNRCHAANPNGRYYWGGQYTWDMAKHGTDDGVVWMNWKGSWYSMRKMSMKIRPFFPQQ
Sequence of Protein Tat (P04608 whole entry, the tested form may be a part): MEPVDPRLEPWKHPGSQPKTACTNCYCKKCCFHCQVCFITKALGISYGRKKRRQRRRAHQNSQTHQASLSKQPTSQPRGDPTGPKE
Sequence of Nonstructural protein 1 (Q194T2 whole entry): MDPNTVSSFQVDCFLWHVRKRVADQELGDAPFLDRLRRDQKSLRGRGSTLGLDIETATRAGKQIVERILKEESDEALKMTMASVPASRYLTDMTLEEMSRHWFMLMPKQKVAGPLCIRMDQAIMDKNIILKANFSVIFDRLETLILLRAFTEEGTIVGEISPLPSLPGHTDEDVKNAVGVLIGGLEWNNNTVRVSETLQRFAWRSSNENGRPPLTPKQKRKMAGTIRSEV
Sequence of Cytochrome P450 2C9 (P11712 whole entry): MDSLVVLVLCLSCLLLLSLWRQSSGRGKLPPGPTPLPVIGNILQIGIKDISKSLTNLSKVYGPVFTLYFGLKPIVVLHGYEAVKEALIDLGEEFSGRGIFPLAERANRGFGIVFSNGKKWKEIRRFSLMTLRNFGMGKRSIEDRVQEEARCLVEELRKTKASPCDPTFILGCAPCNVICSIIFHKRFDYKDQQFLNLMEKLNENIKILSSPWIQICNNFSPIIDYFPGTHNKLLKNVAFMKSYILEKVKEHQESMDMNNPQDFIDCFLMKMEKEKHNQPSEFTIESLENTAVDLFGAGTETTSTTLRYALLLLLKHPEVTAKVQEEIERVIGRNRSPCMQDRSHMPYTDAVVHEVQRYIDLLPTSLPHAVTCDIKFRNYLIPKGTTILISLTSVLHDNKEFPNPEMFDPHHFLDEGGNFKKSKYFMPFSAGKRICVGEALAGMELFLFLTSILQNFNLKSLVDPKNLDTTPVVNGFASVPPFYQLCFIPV
Sequence of Cytochrome P450 3A4 (P08684 whole entry): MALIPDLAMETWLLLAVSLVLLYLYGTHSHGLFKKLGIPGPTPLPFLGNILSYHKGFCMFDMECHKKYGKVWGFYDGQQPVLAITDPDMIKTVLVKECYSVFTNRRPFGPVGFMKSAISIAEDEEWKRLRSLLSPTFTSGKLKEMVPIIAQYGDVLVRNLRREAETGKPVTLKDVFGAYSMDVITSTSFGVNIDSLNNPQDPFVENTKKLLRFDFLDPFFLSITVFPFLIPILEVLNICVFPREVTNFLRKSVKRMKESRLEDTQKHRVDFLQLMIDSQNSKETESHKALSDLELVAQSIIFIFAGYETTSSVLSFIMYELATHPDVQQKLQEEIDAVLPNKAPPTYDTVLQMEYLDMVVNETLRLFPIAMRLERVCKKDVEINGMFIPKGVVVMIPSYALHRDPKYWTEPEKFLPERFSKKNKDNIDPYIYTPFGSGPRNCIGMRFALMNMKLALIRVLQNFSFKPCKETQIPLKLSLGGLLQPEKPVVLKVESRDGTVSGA

CN1CCN(c2nc(-c3ccccc3)nc3ccccc23)CC1
IC50 [1]: > 80 µM (inactive) | IC50 [2]: > 80 µM (inactive)

Cn1c(SC2=CS(=O)(=O)c3ccccc32)nc2ccccc21
IC50 [3]: > 80 µM (inactive) | AC50 (Cytochrome P450 3A4): 39.8 µM (inconclusive) | EC50 [4]: 1.97 µM (active) | AC50 (Cytochrome P450 2C9): 28.2 µM (inconclusive) | EC50 [5]: 7.76 µM (inconclusive) | EC50 [6]: 2.87 µM (active) | AC50 [7]: 6.72 µM (active) | AC50 [8]: 11.3 µM (active) | EC50 [9]: > 38 µM (not active)

O=C(CSc1n[nH]c(-c2ccccn2)n1)Nc1ccc(Cl)cc1
AC50 [10]: 2.2 µM (active) | IC50 [11]: 5.14 µM (active) | IC50 (Nonstructural protein 1): 8.79 µM (active) | AC50 [12]: 47.5 µM (active)

COc1cc(C(=O)NCc2nnc(SCC(=O)Nc3nc4ccc(C)cc4s3)o2)cc(OC)c1OC
CC50 [13]: > 40 µM (active)

CN(CC(=O)Nc1ccc(F)cc1)C(=O)c1cc(-c2ccco2)nc2ccccc12
IC50 (Protein Tat): > 100 µM (active) | IC50 [14]: 5.11 µM (active) | CC50 [15]: > 40 µM (active)

CC1CN(Cc2ccccc2)c2nc3c(c(=O)n(CC(N)=O)c(=O)n3C)n2C1 (stereo not drawn)
EC50 (Transthyretin): > 167 µM (inactive)

COc1ccc(CNC(=O)CSc2n[nH]c3c4cc(F)ccc4nc-3n2)cc1
IC50 [16]: > 83.3 µM (inactive) | IC50 [17]: 0.879 µM (active) | IC50 [18]: 4.39 µM (active) | IC50 [19]: 83.3 µM (inactive) | IC50 [20]: > 1.54 µM (active)

CCOC(=O)C1(C)C(=O)CC2c3nc4ccccc4cc3CN2C1=O (stereo not drawn)
IC50 (Fibrinogen beta chain [21]): 9.24 µM (active) | IC50 (Fibrinogen beta chain [22]): > 83.2 µM (inactive)

Cc1onc(C(=O)N2CCN(C(c3ccc(Cl)cc3)c3ccc(Cl)cc3)CC2)c1[N+](=O)[O-]
AC50 [23]: 0.199 µM (active) | AC50 [24]: 1.3 µM (active) | AC50 [25]: 0.181 µM (active) | AC50 [26]: 0.234 µM (active) | AC50 [27]: 0.723 µM (active)

CCn1nnc(CCc2ccc(N3CCCC3)cc2)n1
AC50 [28]: > 160 µM (inactive)

c1ccc(CSc2nnc(-c3ccccc3)s2)cc1
AC50 [29]: 33.8 µM (active)

Cc1nc(N2[C@H](CO)[C@H](c3ccccc3)[C@H]2CNCC2CCC2)sc1C
AC50 [30]: 0.881 µM (active) | AC50 [31]: > 100 µM (inactive) | AC50 [32]: 1.8 µM (active) | AC50 [33]: 29.3 µM (active) | AC50 [34]: 1.34 µM (active) | AC50 [35]: 1.47 µM (active)

CC(=O)c1ccc(N2CCN(C(=O)c3cc(Cl)c4c(c3)OCO4)CC2)cc1
AC50 [36]: 12.2 µM (active)

COc1ccc(C2=C(NC(=O)c3ccccc3OC)C(=O)c3ccccc3C2=O)cc1
AC50 [37]: 38.1 µM (active) | AC50 [38]: 32.4 µM (active)
